Experimental data from patent US12383530B2, “Pharmaceutical combination for the treatment of melanoma” (Piramal Enterprises Limited, priority 2013, dated 2025).
“And” between values parts separate entries of the source, which are not always exact repeats. Identical values can stand only once.

How the values were obtained:
G361 melanoma cells [1] = experiment: Analysis of cell cycle distribution using flow cytometry, G361; assay type: cell-based, human; settings: 5 days; for apoptosis (sub G1 phase): 1 μM of each compound, alone or together
Experimental: The G361/SK-MEL3 melanoma cells were seeded in […] tissue culture flasks. After 24 h, G361 cells were treated with: i) compound A (1 μM); ii) vemurafenib (1 μM); and iii) compound A (1 μM) and vemurafenib (1 μM) together for 5 days.
(§1) The control cells were left untreated for 5 days. Both detached and adherent cells were harvested at the end of 5 days. The cells were washed twice with approximately 5 mL of phosphate buffered saline (PBS) with centrifugation at 1000 rpm for 10 min. The cells were resuspended in 500 μL of PBS and fixed in 500 μL ice-cold 70% ethanol. The fixed cells were incubated at room temperature for 30 min, spun at 1000 rpm for 10 min. To the cell pellet, 1 mL of chilled 70% ethanol was added and stored below 0° C. till further analysis. The cells were washed twice with PBS to remove fixative and re-suspended in 250 μL PBS. To this 12.5 μL of propidium iodide (1 mg/ml in PBS) and 12.5 μL Rnase A (1 mg/mL) was added. After incubation at 37° C. for 30 min, the cells were analyzed using flow cytometry.
(§2) A flow cytometer (Becton Dickinson FACS Calibur, USA) was used for these studies in accordance with the manufacturer's recommendations. The argon ion laser set at 488 nm was used as an excitation source. Cells with DNA content between 2n and 4n were designated as being in G1, S and G2/M phases of the cell cycle, as defined by the level of red fluorescence. […] The number of cells in each cell cycle compartment was expressed as a percentage of the total number of cells present.

[2] = system: G361 (BRAFV600E mutated) cell line; experiment: CCK8 live cell dehydrogenase cytotoxicity assay, G361 (96-well); assay type: cell-based, human; settings: 48 h
Experimental: (§3) The cells were then treated with the respective test compounds.
(§4) At the end of the incubation periods, the plates were assayed using the CCK8 cytotoxicity assay protocol. The synergism was determined by the combination index (CI) calculated using the Compusyn software by Chou and Talalay (4). CI<1 is synergistic, CI=1 is additive and CI>1 is antagonistic.
(§5) Statistical analysis was performed using the Student t test, and a p value of <0.05 was considered significant. Data are expressed as the mean±standard error of the mean (SEM). The mean value was obtained from at least two independent experiments, each performed in triplicate.
(§6) Logarithmically growing cells were plated at a density of 3×10^3 cells/well and allowed to recover for 16-18 h. […] After 48 h, cell toxicity was determined by CCK-8 reagent (Dojindo Molecular Technologies, Inc, Maryland, and Japan). In accordance with the manufacturer's instructions, 5 μL/well CCK-8 reagent was added and plates were incubated for 2 h. The toxicity was determined by measuring the absorbance on Tecan Sapphire multi-fluorescence micro-plate reader at a wavelength of 450 nm corrected to 650 nm and normalized to controls. All the experiments were performed twice in triplicates.

G361 melanoma cells [3] = experiment: Annexin V-FITC staining for detection of early apoptosis; assay type: cell-based, human; settings: 1 μM of each compound, alone or together, 24 h
Experimental: Annexin V-FITC is a sensitive probe for identifying apoptotic cells. During early apoptosis, the membrane phospholipid phosphatidyl serine (PS) is translocated from the inner to the outer leaflet of the plasma membrane, thereby exposing PS to the external cellular environment. Annexin V is a 35-36 kDa Calcium dependent phospholipid binding protein that has a high affinity for PS and binds to cells with exposed PS.
The melanoma cells G361 was seeded in […] tissue culture flasks. After 24 h, cells were treated with: i) compound A (1 μM); ii) vemurafenib (1 μM); and iii) compound A (1 μM) and vemurafenib (1 μM) together; for 24 h. The control cells were left untreated for 24 h. Medium containing floating cells were collected and pooled with the adherent cells after harvesting with trypsin at the different time points. The cells were washed twice with cold PBS with centrifugation at 1000 rpm for 10 minutes. The cell pellet was resuspended in 1× binding buffer (10 mm HEPES pH 7.4, 140 mM NaCl, 2.5 mM CaCl2) at a concentration of 1×10^6 cells/mL. 100 μL of the solution (1×10^5 cells) were stained with Annexin V-FITC and propidium iodide. The cells were incubated for 15 min at room temperature (25-30° C.) in the dark and the sample was analysed by flow cytometry.

SK-MEL3 melanoma cells = experiment: Analysis of cell cycle distribution using flow cytometry, SK-MEL3; assay type: cell-based; settings: 5 days
Experimental: In case of SK-MEL3 melanoma cells, the cells were treated with: i) compound A (1 μM); ii) vemurafenib (10 μM); and iii) compound A (1 μM) and vemurafenib (10 μM) together for 5 days.
as §1, §2

[4] = system: A375 (BRAFV600E mutated) cell line; experiment: CCK8 live cell dehydrogenase cytotoxicity assay, A375 (96-well); assay type: cell-based, human; settings: 48 h
Experimental: as §3, §4, §5, §6

[5] = system: MDAMB-435S (BRAFV600E mutated) cell line; experiment: CCK8 live cell dehydrogenase cytotoxicity assay, MDAMB-435S (96-well); assay type: cell-based, human; settings: 48 h
Experimental: as §3, §4, §5, §6

[6] = system: A375 (BRAFV600E mutated) cell line; experiment: CCK8 live cell dehydrogenase assay, A375 (384-well, Example 2); assay type: cell-based, human; settings: A375 parental, single agent, 48 h
Experimental: Logarithmically growing human BRAFV600E mutated melanoma cells were seeded at a density of 1500 cells/well in 30 μL of Dulbecco's Modified Eagle medium medium (DMEM) in 384-well plate (Corning, USA) using Tecan automated platform (FreedomEvo Liquid handling system) and incubated for about 12-16 h to allow the cells to adhere. […] The controls used were only cells or cells along with the vehicle (DMSO).
The plates were incubated for 48 h in humidified 5% CO2 incubator at 37°±1° C. Post incubation the plates were assayed using the CCK8 reagent (Dojindo Molecular Technologies, Inc, Maryland, and Japan). In accordance with the manufacturer's instructions, 3 μL CCK-8 reagent was added in each well of the 384 well plate and plates were incubated for 2 h. The toxicity was determined by measuring the absorbance on Tecan Sapphire multi-fluorescence micro-plate reader at a wavelength of 450 nm normalized to controls. All the experiments were performed in quadruplets.

[7] = system: A375R cell line (vemurafenib resistant); experiment: CCK8 live cell dehydrogenase assay, A375R (384-well, Example 2); assay type: cell-based, human; settings: single agent, 48 h
Experimental: The cytotoxicity studies using all the test compounds as single agents and in combinations were carried out using the CCK8 live cell dehydrogenase assay.
Logarithmically growing human BRAFV600E mutated melanoma cells were seeded at a density of 1500 cells/well in 30 μL of Dulbecco's Modified Eagle medium medium (DMEM) in 384-well plate (Corning, USA) using Tecan automated platform (FreedomEvo Liquid handling system) and incubated for about 12-16 h to allow the cells to adhere. The cells were then treated for 48 h with different doses of compound A and anticancer agents (vemurafenib or dabrafenib or trametinib) as monotherapy (used singly) and in combinations. Studies using different dosages were carried out for each combination (e.g. combination of compound A and vemurafenib). […]
The plates were incubated for 48 h in humidified 5% CO2 incubator at 37°±1° C. […] The toxicity was determined by measuring the absorbance on Tecan Sapphire multi-fluorescence micro-plate reader at a wavelength of 450 nm normalized to controls. […]
The potency of the combination was quantified using Calcusyn software (Biosoft, Ferguson, MO, USA) which is based on the Chou Talalay method that calculates a combination index (CI) with CI values less than 1 indicating synergy.

SMILES: CCCS(=O)(=O)Nc1ccc(F)c(C(=O)c2c[nH]c3ncc(-c4ccc(Cl)cc4)cc23)c1F [vemurafenib, reference compound]
- apoptosis (sub G1 phase) (G361 melanoma cells [1]): 2.3%
- G1 arrest (G361 melanoma cells [1]; vemurafenib 1 μM, control cells 72.36%): 91.94%
- inhibition at 1 µM ([2]; Homo sapiens, G-361, G361, vemurafenib 1 μM alone, read-out: inhibition of cells): 30%
- cells in early apoptosis (annexin stained cells) (G361 melanoma cells [3]): 20%
- apoptosis (sub G1 phase) (SK-MEL3 melanoma cells; vemurafenib 10 μM alone): 15.12%
- G1 arrest (SK-MEL3 melanoma cells; vemurafenib 10 μM, control cells 67.38%): 76.78%
- inhibition at 1 µM ([4]; Homo sapiens, A-375, A375, vemurafenib 1 μM alone, read-out: inhibition of cells): 23%
- inhibition at 1 µM ([5]; Homo sapiens, MDA-MB-435S, MDA-MB435S, vemurafenib 1 μM alone, read-out: inhibition of cells): 31%

SMILES: CN1CC[C@@H](c2c(O)cc(O)c3c(=O)cc(-c4ccc(C(F)(F)F)cc4Cl)oc23)[C@@H]1CO.Cl (relative stereo) [compound A, (+)-trans-2-(2-chloro-4-trifluoromethylphenyl)-5,7-dihydroxy-8-(2-hydroxy-methyl-1-methylpyrrolidin-3-yl)-chromen-4-one Hydrochloride]
- apoptosis (sub G1 phase) (G361 melanoma cells [1]): 9.48%
- inhibition of cells ([2]; G361, compound A 0.3 μM alone): 2%
- sensitivity of the cell line (dose response curve) [6]: equally sensitive
- cells in early apoptosis (annexin stained cells) (G361 melanoma cells [3]): 8%
- apoptosis (sub G1 phase) (SK-MEL3 melanoma cells; compound A 1 μM alone): 19.63%
- sensitivity of the cell line (dose response curve) [7]: equally sensitive
- inhibition of cells ([4]; A375, compound A 3 μM alone): 46%
- inhibition of cells ([5]; MDA-MB435S, compound A 1 μM alone): 32%
- IC50 ([5]; MDAMB435S, cytotoxicity, Hydrochloride, read-out: IC50 in μM (±SEM)): 0.85 µM and 0.7 µM
